“Also recorded” adds a separate entry of the source.
How the values were obtained:
[1] = test system: Primary Neurons; test: HCS neurite outgrowth assay (High Content Screening with Primary Neurons); format: cell-based; details: Primary neuron
[2] = test system: corticospinal tract (CST) axons; test: Unilateral pyramidotomy model, in vivo axon growth (CST axon sprouting); details: mice, cortical injection, 2 mM final concentration, 5 weeks after unilateral pyramidotomy, N=2
Text: B) Graph represents averages of sprouting axon index across two animals treated with indicated compounds. Error bars indicate range of data points. N=2 animals (mice).
To assess the role of the compounds described herein in axon growth in vivo, the unilateral pyramidotomy model was employed, in which the pyramid in the ventral brainstem was severed unilaterally, rostral to the decussation of corticospinal tract (CST) axons. The animals then received bilateral cortical injections of a compound described herein (or DMSO) mixed 1:1 with AAV8-UbC-GFP or AAV8-UbC-TdTomato (5×10^13 GC/mL) for a final concentration of 2 mM (2 animals (mice) for each condition). […] Axon growth in the cervical spinal cord was assessed after 5 weeks. Cervical sections of the spinal cord were stained with antibodies against PKCγ (to assess completeness of lesion), and GFP (to amplify the signal from the virus). For analyses, GFP+ axons sprouting into the denervated gray matter were counted at 0, 500, 1000 μm lateral to the central canal, and normalized to the number of GFP+ fibers at the level of the brainstem (sprouting axon index).

[3] = test system: neurons from hippocampi of E18 rat embryos; test: Neurite growth length (% NTL) in cultured E18 rat hippocampal neurons, 9-point dose response, 48 hours; format: cell-based; details: Rattus norvegicus, Neuron, 48 h; for activity at 0.078 µM: 78 nM; for activity at 0.156 µM: 156 nM; for activity at 0.312 µM: 312 nM; for activity at 0.625 µM: 625 nM
Procedure, shortened: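 % NTL comes from automated neurite tracing of βIII-tubulin-stained cells, with 200–300 or more neurons per condition. Compounds were given in a 9-point dilution series (20 μM to 0.078125 μM) for 48 h. Cells were trypsin-dissociated E18 rat hippocampal neurons plated at 1500/well on poly-D-lysine.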

Compound	EC50 [1] [µM]	CST axon sprouting (sprouting axon index) [2]	activity at 0.078 µM [3] [%]	activity at 0.156 µM [3] [%]	activity at 0.312 µM [3] [%]	activity at 0.625 µM [3] [%]	activity at 1.25 µM [3] [%]	activity at 2.5 µM [3] [%]	activity at 5 µM [3] [%]	activity at 10 µM [3] [%]	activity at 20 µM [3] [%]
O=C(N[C@@H]1CNC[C@H]1NC(=O)c1ccc(C(=O)c2cc(Br)ccc2O)cc1)c1ccncc1 [Example A88, N-((3R,4R)-4-(4-(5-bromo-2-hydroxybenzoyl)benzamido)pyrrolidin-3-yl)isonicotinamide]	1.17	promotes CST axon sprouting in the spinal cord; also recorded: nearly a two-fold increase in sprouting	–	–	–	–	–	–	–	–	–
O=C(N[C@@H]1CNC[C@H]1NC(=O)c1ccncc1)c1ccncc1 (stereo in doubt) [Example A10, N-[(3R,4R)-4-(pyridine-4-amido)pyrrolidin-3-yl]pyridine-4-carboxamide]	0.93	–	91.7	91.2	87.5	88.2	83.7	82.9	85.9	86	92.6
COc1ccc(C(=O)c2ccc(C(=O)N[C@@H]3CNC[C@H]3NC(=O)c3ccnc(N)n3)cc2)c(O)c1 [Example A82, 2-amino-N-[(3R,4R)-4-[4-(2-hydroxy-4-methoxybenzoyl)benzamido]pyrrolidin-3-yl]pyrimidine-4-carboxamide]	0.154	–	107	115	117	124	122	120	120	131	117
COc1ccc(O)c(C(O)c2ccc(C(=O)N[C@@H]3CNC[C@H]3NC(=O)c3ccnc(N)n3)cc2)c1F (stereo partly drawn) [Example A44, 2-amino-N-[(3R,4R)-4-{4-[(2-fluoro-6-hydroxy-3-methoxyphenyl)(hydroxy)methyl]benzamido}pyrrolidin-3-yl]pyrimidine-4-carboxamide]	2.05	–	94	87.1	78.8	76.4	99.4	96.2	104	103	105
COc1ccc(O)c(C(=O)c2ccc(C(=O)N[C@@H]3CNC[C@H]3NC(=O)c3ccc4[nH]nnc4c3)cc2)c1F [Example A58, N-[(3R,4R)-4-[4-(2-fluoro-6-hydroxy-3-methoxybenzoyl)benzamido]pyrrolidin-3-yl]-1H-1,2,3-benzotriazole-5-carboxamide]	5.27	–	88.3	87.6	79.3	75.7	76.3	84.8	85.3	89.5	88.6
COc1cc(C(=O)c2ccccc2O)ccc1C(=O)N[C@@H]1CNC[C@H]1NC(=O)c1ccncc1 [Example A69, N-[(3R,4R)-4-[4-(2-hydroxybenzoyl)-2-methoxybenzamido]pyrrolidin-3-yl]pyridine-4-carboxamide]	0.401	–	94.3	96.2	96	107	110	112	112	119	117
O=C(N[C@@H]1CNC[C@H]1NC(=O)c1ccc(C(=O)c2c(O)cccc2F)cc1)c1ccncc1 [Example A51, N-[(3R,4R)-4-[4-(2-fluoro-6-hydroxybenzoyl)benzamido]pyrrolidin-3-yl]pyridine-4-carboxamide]	4.9	–	129	129	135	158	191	260	362	506	421
COc1ccc(O)c(C(=O)c2ccc(C(=O)O[C@@H]3CCCNC[C@H]3NC(=O)c3ccncc3)cc2)c1F [Example A92, (3R,4R)-3-(isonicotinamido)azepan-4-yl 4-(2-fluoro-6-hydroxy-3-methoxybenzoyl)benzoate, reference compound]	0.711	promotes CST axon sprouting in the spinal cord; also recorded: nearly a two-fold increase in sprouting	–	–	–	–	–	–	–	–	–
Nc1nccc(C(=O)N[C@@H]2CNC[C@H]2NC(=O)c2ccc(C(=O)c3c(O)cccc3F)cc2)n1 [Example A50, 2-amino-N-[(3R,4R)-4-[4-(2-fluoro-6-hydroxybenzoyl)benzamido]pyrrolidin-3-yl]pyrimidine-4-carboxamide]	3.6	–	113	113	118	136	194	285	431	561	457
COc1ccc(O)c(C(=O)c2ccc(C(=O)N[C@@H]3CNC[C@H]3NC(=O)c3ccc4cn[nH]c4c3)cc2)c1F [Example A57, N-[(3R,4R)-4-[4-(2-fluoro-6-hydroxy-3-methoxybenzoyl)benzamido]pyrrolidin-3-yl]-1H-indazole-6-carboxamide]	> 20	–	92.2	97.8	95.1	93.9	97.3	93.5	105	107	111
COc1ccc(OC)c(C(=O)c2ccc(C(=O)O[C@@H]3CCN(C)C[C@H]3NC(=O)c3ccncc3)cc2)c1F [Example A30, (3R,4R)-1-methyl-3-(pyridine-4-amido)piperidin-4-yl 4-(2-fluoro-3,6-dimethoxybenzoyl)benzoate]	4.92	–	93.1	89.7	90.5	83.5	93.8	94.8	103	107	117
COc1ccc(O)c(C(=O)c2ccc(C(=O)N[C@@H]3CCCC[C@H]3NC(=O)c3ccncc3)cc2)c1F [Example A22]	2.61	–	89.3	91.8	92.3	86.2	85.5	85.5	88.7	91.1	94.7
COc1ccc(OC)c(C(=O)c2ccc(C(=O)Nc3ccncc3NC(=O)c3ccncc3)cc2)c1F [Example A1, N-{4-[4-(2-fluoro-3,6-dimethoxybenzoyl)benzamido]pyridin-3-yl}pyridine-4-carboxamide]	9.34	–	89.9	89	89.6	91	93.5	85.8	92.9	87	84.6
O=C(Nc1ccncc1NC(=O)c1ccncc1)c1ccc(C(=O)c2ccccc2)cc1 [Example A3, N-[4-(4-benzoylbenzamido)pyridin-3-yl]pyridine-4-carboxamide]	0.798	–	98.3	99.9	96.3	92.6	96.7	95.1	93.6	92.9	96.6
COc1ccc(O)c(C(=O)c2ccc(C(=O)N[C@@H]3CNC[C@H]3NC(=O)c3ccnc(N)n3)cc2)c1F [Example A36, 2-amino-N-[(3R,4R)-4-[4-(2-fluoro-6-hydroxy-3-methoxybenzoyl)benzamido]pyrrolidin-3-yl]pyrimidine-4-carboxamide]	1.83	–	116	126	131	149	239	358	516	480	470
COc1ccc(O)c(C(=O)c2ccc(C(=O)N[C@@H]3CNC[C@H]3NC(=O)c3cn[nH]c3)cc2)c1F [Example A43, N-[(3R,4R)-4-[4-(2-fluoro-6-hydroxy-3-methoxybenzoyl)benzamido]pyrrolidin-3-yl]-1H-pyrazole-4-carboxamide]	3.11	–	118	118	115	114	124	136	144	155	173
